Experimental findings from ChEMBL document CHEMBL3352328, “Synthesis and biological evaluation of a new series of N-acyldiamines as potential antibacterial and antifungal agents” (2014) are described below.

Values after ≈ are worked out from the molar mass of the structure shown. Active and inactive are the calls of the source.

Assay [1] relates to Staphylococcus aureus. The assay is described as follows: Antimicrobial activity against Staphylococcus aureus ATCC 29213 by broth dilution method. The format is functional. In general terms: Broth dilution looks for growth in wells or tubes with falling amounts of substance.
For assay [2], the system named is Staphylococcus epidermidis. Description: Antimicrobial activity against Staphylococcus epidermidis ATCC 12228 by broth dilution method. Type of assay: functional.
Assay [3] relates to Escherichia coli. The assay is described as follows: Antimicrobial activity against Escherichia coli ATCC 11229 by broth dilution method. The format is functional.
The subject of assay [4] is Pseudomonas aeruginosa. Description: Antimicrobial activity against Pseudomonas aeruginosa ATCC 27853 by broth dilution method. The format is functional.
The test system of assay [5] is Staphylococcus aureus. Description: Bactericidal activity against Staphylococcus aureus ATCC 29213 after 24 hrs. The format is functional. The following applies: ATCC 29213, 24 h.
The subject of assay [6] is Staphylococcus epidermidis. Description: Bacteriostatic activity against Staphylococcus epidermidis ATCC 12228 after 24 hrs. The format is functional, organism-based.
The subject of assay [7] is Escherichia coli. Description: Bacteriostatic activity against Escherichia coli ATCC 11229 after 24 hrs. The format is functional, organism-based.
For assay [8], the system named is Pseudomonas aeruginosa. The assay is described as follows: Bacteriostatic activity against Pseudomonas aeruginosa ATCC 27853 after 24 hrs. Type of assay: functional, organism-based.
Assay [9] has as its system Staphylococcus aureus. Description: Bactericidal activity against methicillin-resistant Staphylococcus aureus clinical isolate 2 after 24 hrs. Type of assay: functional. The following applies: isolate 2, 24 h.
For assay [10], the system named is Staphylococcus aureus. The assay is described as follows: Bactericidal activity against methicillin-resistant Staphylococcus aureus clinical isolate 3 after 24 hrs. The format is functional. The conditions noted are these: isolate 3, 24 h.
Assay [11] relates to Staphylococcus aureus. The assay is described as follows: Bactericidal activity against methicillin-resistant Staphylococcus aureus clinical isolate 4 after 24 hrs. The conditions noted are these: isolate 4, 24 h. The format is functional.
Assay [12] deals with Staphylococcus aureus. The assay is described as follows: Bactericidal activity against methicillin-resistant Staphylococcus aureus clinical isolate 5 after 24 hrs. The format is functional. The following applies: isolate 5, 24 h.
The subject of assay [13] is Staphylococcus aureus. Description: Bactericidal activity against methicillin-resistant Staphylococcus aureus clinical isolate 6 after 24 hrs. The format is functional. The following applies: isolate 6, 24 h.
The subject of assay [14] is Staphylococcus aureus. The assay is described as follows: Bactericidal activity against methicillin-resistant Staphylococcus aureus clinical isolate 10 after 24 hrs. Type of assay: functional. The conditions noted are these: isolate 10, 24 h.
Assay [15] deals with Staphylococcus aureus. Description: Bactericidal activity against methicillin-resistant Staphylococcus aureus clinical isolate 14 after 24 hrs. The format is functional. The following applies: isolate 14, 24 h.
Assay [16] relates to Staphylococcus aureus. The assay is described as follows: Bactericidal activity against methicillin-resistant Staphylococcus aureus clinical isolate 15 after 24 hrs. The format is functional. The conditions noted are these: isolate 15, 24 h.
The test system of assay [17] is Staphylococcus aureus. The assay is described as follows: Bactericidal activity against methicillin-resistant Staphylococcus aureus clinical isolate 17 after 24 hrs. The following applies: isolate 17, 24 h. The format is functional.
For assay [18], the system named is Staphylococcus aureus. Description: Bactericidal activity against methicillin-resistant Staphylococcus aureus clinical isolate 18 after 24 hrs. The format is functional. The conditions noted are these: isolate 18, 24 h.
The subject of assay [19] is Staphylococcus aureus. Description: Bactericidal activity against methicillin-resistant Staphylococcus aureus clinical isolate 21 after 24 hrs. The format is functional. The following applies: isolate 21, 24 h.
Assay [20] concerns Staphylococcus aureus. The assay is described as follows: Bactericidal activity against methicillin-resistant Staphylococcus aureus clinical isolate after 24 hrs. The format is functional.
Another assay has as its system Candida albicans. The assay is described as follows: Antifungal activity against Candida albicans ATCC 18804 by broth microdilution method. The format is functional.
Another assay relates to Candida tropicalis. The assay is described as follows: Antifungal activity against Candida tropicalis ATCC 750 by broth microdilution method. Type of assay: functional.
In the next assay the test system is Nakaseomyces glabratus. Description: Antifungal activity against Candida glabrata ATCC 90030 by broth microdilution method. Type of assay: functional.
Another assay has as its system Candida parapsilosis. The assay is described as follows: Antifungal activity against Candida parapsilosis ATCC 22019 by broth microdilution method. Type of assay: functional. The conditions noted are these: Lodderomyces parapsilosis.
The test system of assay [21] is Staphylococcus epidermidis. The assay is described as follows: Bactericidal activity against Staphylococcus epidermidis ATCC 12228 after 24 hrs. The conditions noted are these: ATCC 12228, 24 h. Type of assay: functional.
The subject of assay [22] is Escherichia coli. The assay is described as follows: Bactericidal activity against Escherichia coli ATCC 11229 after 24 hrs. The format is functional. The conditions noted are these: ATCC 11229, 24 h.
Assay [23] concerns Pseudomonas aeruginosa. Description: Bactericidal activity against Pseudomonas aeruginosa ATCC 27853 after 24 hrs. The format is functional. The following applies: ATCC 27853, 24 h.
Assay [24] has as its system Staphylococcus aureus. The assay is described as follows: Bactericidal activity against methicillin-resistant Staphylococcus aureus clinical isolate 1 after 24 hrs. Type of assay: functional. The conditions noted are these: isolate 1, 24 h.
Assay [25] has as its system Staphylococcus aureus. Description: Bactericidal activity against methicillin-resistant Staphylococcus aureus clinical isolate 7 after 24 hrs. The format is functional. The conditions noted are these: isolate 7, 24 h.
Assay [26] deals with Staphylococcus aureus. The assay is described as follows: Bactericidal activity against methicillin-resistant Staphylococcus aureus clinical isolate 8 after 24 hrs. Type of assay: functional. The following applies: isolate 8, 24 h.
In assay [27] the test system is Staphylococcus aureus. The assay is described as follows: Bactericidal activity against methicillin-resistant Staphylococcus aureus clinical isolate 9 after 24 hrs. Type of assay: functional. The following applies: isolate 9, 24 h.
The subject of assay [28] is Staphylococcus aureus. The assay is described as follows: Bactericidal activity against methicillin-resistant Staphylococcus aureus clinical isolate 11 after 24 hrs. The following applies: isolate 11, 24 h. Type of assay: functional.
In assay [29] the test system is Staphylococcus aureus. Description: Bactericidal activity against methicillin-resistant Staphylococcus aureus clinical isolate 12 after 24 hrs. Type of assay: functional. The conditions noted are these: isolate 12, 24 h.
Assay [30] has as its system Staphylococcus aureus. Description: Bactericidal activity against methicillin-resistant Staphylococcus aureus clinical isolate 13 after 24 hrs. Type of assay: functional. The conditions noted are these: isolate 13, 24 h.
The test system of assay [31] is Staphylococcus aureus. Description: Bactericidal activity against methicillin-resistant Staphylococcus aureus clinical isolate 16 after 24 hrs. The format is functional. The conditions noted are these: isolate 16, 24 h.
The test system of assay [32] is Staphylococcus aureus. Description: Bactericidal activity against methicillin-resistant Staphylococcus aureus clinical isolate 19 after 24 hrs. Type of assay: functional. The following applies: isolate 19, 24 h.
Assay [33] concerns Staphylococcus aureus. Description: Bactericidal activity against methicillin-resistant Staphylococcus aureus clinical isolate 20 after 24 hrs. The format is functional. The following applies: isolate 20, 24 h.

As to `CCCCCCCCCCCCCC(=O)NCCN`, the MIC against Staphylococcus aureus [1] amounted to 8 µg/mL (≈ 29.6 µM); in [2], 16 µg/mL (≈ 59.2 µM); in the assay with Escherichia coli [3] it was 64 µg/mL (≈ 237 µM); against Pseudomonas aeruginosa [4], 1020 µg/mL (≈ 3790 µM); in the assay with Candida albicans, 4 µg/mL (≈ 14.8 µM); in the assay on Candida tropicalis, 16 µg/mL (≈ 59.2 µM). Besides, the MIC came out at 16 µg/mL (≈ 59.2 µM) in the assay with Nakaseomyces glabratus and 32 µg/mL (≈ 118 µM) in the assay with Candida parapsilosis. Besides, the MBC with Staphylococcus aureus [5] came out at 128 µg/mL (≈ 473 µM); in the assay with Staphylococcus aureus [9], 512 µg/mL (≈ 1890 µM); in the assay on Staphylococcus aureus [10], 512 µg/mL (≈ 1890 µM); against Staphylococcus aureus [11], 512 µg/mL (≈ 1890 µM); with Staphylococcus aureus [12], 512 µg/mL (≈ 1890 µM); with Staphylococcus aureus [13] it was 512 µg/mL (≈ 1890 µM). Further, the minimal bactericidal concentration (MBC) in the assay with Staphylococcus aureus [14] was determined as 512 µg/mL (≈ 1890 µM); against Staphylococcus aureus [15], 128 µg/mL (≈ 473 µM); with Staphylococcus aureus [16], 64 µg/mL (≈ 237 µM); against Staphylococcus aureus [17], 128 µg/mL (≈ 473 µM); with Staphylococcus aureus [18] it was 128 µg/mL (≈ 473 µM); in the assay on Staphylococcus aureus [19], 128 µg/mL (≈ 473 µM). For the same compound, the result (in [6]; in the assay with Escherichia coli [7]; in the assay on Pseudomonas aeruginosa [8]) was Active. Also, the MIC50 in the assay with Staphylococcus aureus [20] is 32 µg/mL (≈ 118 µM). This compound also displayed an MIC90 in the assay with Staphylococcus aureus [20] of 256 µg/mL (≈ 947 µM).
Take `CCCCCCCCCCCCCC(=O)NCCCN`: the MIC was > 1020 µg/mL with Staphylococcus aureus [1]; 1020 µg/mL (≈ 3600 µM) in [2]; > 1020 µg/mL in the assay with Escherichia coli [3]; 1020 µg/mL (≈ 3600 µM) with Pseudomonas aeruginosa [4]; 32 µg/mL (≈ 112 µM) in the assay with Candida albicans; 32 µg/mL (≈ 112 µM) with Candida tropicalis. The minimum inhibitory concentration (MIC) in the assay on Nakaseomyces glabratus turned out to be 64 µg/mL (≈ 225 µM); in the assay with Candida parapsilosis, 16 µg/mL (≈ 56.2 µM). In addition, the result (in assay [6]; in the assay on Pseudomonas aeruginosa [8]) was Active.
In the case of `CCCCCCCCCCCC(=O)NCCN`, the minimal inhibitory concentration (MIC) stood at 16 µg/mL (≈ 66 µM) in the assay with Staphylococcus aureus [1]; 16 µg/mL (≈ 66 µM) in assay [2]; 8 µg/mL (≈ 33 µM) against Escherichia coli [3]; 8 µg/mL (≈ 33 µM) in the assay on Pseudomonas aeruginosa [4]; 128 µg/mL (≈ 528 µM) with Candida albicans; 16 µg/mL (≈ 66 µM) against Candida tropicalis. For the same compound, the minimal inhibitory concentration (MIC) with Nakaseomyces glabratus and against Candida parapsilosis was 16 µg/mL (≈ 66 µM) each time. Besides, the minimal bactericidal concentration (MBC) worked out at 16 µg/mL (≈ 66 µM) in the assay with Staphylococcus aureus [5]; 16 µg/mL (≈ 66 µM) in assay [21]; 16 µg/mL (≈ 66 µM) against Escherichia coli [22]; 16 µg/mL (≈ 66 µM) against Pseudomonas aeruginosa [23]; 1020 µg/mL (≈ 4220 µM) against Staphylococcus aureus [24]; 256 µg/mL (≈ 1060 µM) in the assay on Staphylococcus aureus [9]. Further, the MBC in the assay with Staphylococcus aureus [10] turned out to be 1020 µg/mL (≈ 4220 µM); against Staphylococcus aureus [11] it was 256 µg/mL (≈ 1060 µM); with Staphylococcus aureus [12], 32 µg/mL (≈ 132 µM); against Staphylococcus aureus [13] it was 32 µg/mL (≈ 132 µM); in the assay on Staphylococcus aureus [25] it was 32 µg/mL (≈ 132 µM); in the assay on Staphylococcus aureus [26], 16 µg/mL (≈ 66 µM). Moreover, the MBC against Staphylococcus aureus [27] is 32 µg/mL (≈ 132 µM); with Staphylococcus aureus [14], 32 µg/mL (≈ 132 µM); against Staphylococcus aureus [28], > 1020 µg/mL; against Staphylococcus aureus [29] it was > 1020 µg/mL; in the assay on Staphylococcus aureus [30], 32 µg/mL (≈ 132 µM); against Staphylococcus aureus [15], > 1020 µg/mL. In addition, the MBC was 1020 µg/mL (≈ 4220 µM) against Staphylococcus aureus [16]; 1020 µg/mL (≈ 4220 µM) against Staphylococcus aureus [31]; 256 µg/mL (≈ 1060 µM) against Staphylococcus aureus [17]; 32 µg/mL (≈ 132 µM) in the assay with Staphylococcus aureus [18]; 128 µg/mL (≈ 528 µM) against Staphylococcus aureus [32]; 256 µg/mL (≈ 1060 µM) in the assay with Staphylococcus aureus [33]. Moreover, the minimal bactericidal concentration (MBC) against Staphylococcus aureus [19] was > 1020 µg/mL. The compound further yielded an MIC50 with Staphylococcus aureus [20] of 32 µg/mL (≈ 132 µM). Also, the MIC90 with Staphylococcus aureus [20] is > 1020 µg/mL.
For `CCCCCCCC/C=C\CCCCCCCC(=O)NCCN`, the MIC against Staphylococcus aureus [1] was > 1020 µg/mL; in assay [2], 8 µg/mL (≈ 24.6 µM); against Escherichia coli [3] it was > 1020 µg/mL; with Pseudomonas aeruginosa [4], > 1020 µg/mL; against Candida albicans, 128 µg/mL (≈ 394 µM); against Candida tropicalis, 128 µg/mL (≈ 394 µM). In addition, the minimal inhibitory concentration (MIC) against Nakaseomyces glabratus turned out to be 64 µg/mL (≈ 197 µM); with Candida parapsilosis it was 128 µg/mL (≈ 394 µM). Also, the outcome in assay [6] was Active.

By MIC is commonly meant the smallest concentration in the dilution series that meets the test's criterion for growth inhibition. High values mean a need for much substance, low ones inhibition by little substance. Broadly, the MBC is the lowest tested concentration that kills the bacteria rather than only halting them. Low readings indicate more potent killing, high ones less potent killing. The MIC50 is the lowest concentration that inhibits either 50% of growth or 50% of the strains tested, depending on the study. The low end stands for higher susceptibility, the high end for lower susceptibility. One may read the MIC90 as an inhibitory concentration at the 90% level, which refers to growth in some studies and to a panel of isolates in others. Higher therefore signals lower susceptibility.
